In US20090018166A1, “New Pyridine Analogues X 161” (ASTRAZENECA AB, priority 2007, published 2009):

Biological target: T1, P2Y12 receptor (Homo sapiens, UniProt Q9H244)
T1 construct: expressed in transfected cells; host or cells: CHO cells (membranes)
Assay: Functional inhibition of 2-Me-S-ADP induced P2Y12 signalling (35S-GTPγS binding, membranes from P2Y12 transfected CHO-cells)
Assay type: biochemical
Conditions: 35S-GTPγS, EC80 of 2-methyl-thio-adenosine diphosphate, P2Y12 CHO membranes; value given in each example; read-out: GTPγS(IC50 μM)
Experimental: Functional inhibition of- the P2Y12 receptor can be measured by in vitro assays using cell membranes from P2Y12 transfected CHO-cells, the methodology is indicated below.
Functional inhibition of 2-Me-S-ADP induced P2Y12 signalling: 5 μg of membranes were diluted in 200 μl of 200 mM NaCl, 1 mM MgCl2, 50 mM HEPES (pH 7.4), 0.01% BSA, 30 μg/ml saponin and 10 μM GDP. To this was added an EC80 concentration of agonist (2-methyl-thio-adenosine diphosphate), the required concentration of test compound and 0.1 μCi ^35S-GTPγS. The reaction was allowed to proceed at 30° C. for 45 min. Samples were then transferred on to GF/B filters using a cell harvester and washed with wash buffer (50 mM Tris (pH 7.4), 5 mM MgCl2, 50 mM NaCl). Filters were then covered with scintilant and counted for the amount of ^35S-GTPγS retained by the filter. Maximum activity was that determined in the presence of the agonist and minimum activity in the absence of the agonist following subtraction of the value determined for non-specific activity. The effect of compounds at various concentrations was plotted according to the equation
y=A+((B−A)/(1+((C/x)̂D)))
and IC50 estimated where A is the bottom plateau of the curve i.e. the final minimum y value B is the top of the plateau of the curve i.e. the final maximum y value C is the x value at the middle of the curve. This represents the log EC50 value when A+B=100 D is the slope factor. x is the original known x values. Y is the original known y values.

T1 sequence (Q9H244 whole entry): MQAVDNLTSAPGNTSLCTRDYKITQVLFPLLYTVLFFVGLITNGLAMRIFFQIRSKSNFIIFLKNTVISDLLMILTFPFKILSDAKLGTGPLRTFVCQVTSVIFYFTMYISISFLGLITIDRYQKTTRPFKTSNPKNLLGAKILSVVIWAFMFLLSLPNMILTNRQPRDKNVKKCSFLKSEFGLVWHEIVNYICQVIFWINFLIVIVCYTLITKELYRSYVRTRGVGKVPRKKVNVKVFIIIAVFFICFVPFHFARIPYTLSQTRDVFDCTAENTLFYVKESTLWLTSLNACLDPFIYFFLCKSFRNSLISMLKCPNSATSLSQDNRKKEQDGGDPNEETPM

Compound	IC50 [µM]
CCCC(=O)c1cc(Cl)c(N2CCC(C(=O)NS(=O)(=O)CC3CCCCC3)CC2)nc1CN1CCCC1=O [Example 52, 1-{5-butyryl-3-chloro-6-[(2-oxopyrrolidin-1-yl)methyl]pyridin-2-yl}-N-[(cyclohexylmethyl)sulfonyl]piperidine-4-carboxamide]	0.231
CCCC(=O)c1cc(C#N)c(N2CCC(C(=O)NS(=O)(=O)N(C)c3ccc(F)cc3)CC2)nc1CN1CCCC1=O [Example 33, 1-{5-Butyryl-3-cyano-6-[(2-oxopyrrolidin-1-yl)methyl]pyridin-2-yl}-N-{[(4-fluorophenyl)(methyl)amino]sulfonyl}piperidine-4-carboxamide]	0.011
CCCC(=O)c1cc(C#N)c(N2CCC(C(=O)NS(=O)(=O)Nc3ccc(F)cc3)CC2)nc1CN1CCCC1=O [Example 37, 1-{5-Butyryl-3-cyano-6-[(2-oxopyrrolidin-1-yl)methyl]pyridin-2-yl}-N-{[(4-fluorophenyl)amino]sulfonyl}piperidine-4-carboxamide]	0.019
CCCCC(=O)c1cc(Cl)c(N2CCC(C(=O)NS(=O)(=O)Cc3ccc(Cl)cc3)CC2)nc1CN1CCCC1=O [Example 59, N-[(4-chlorobenzyl)sulfonyl]-1-{3-chloro-6-[(2-oxopyrrolidin-1-yl)methyl]-5-pentanoylpyridin-2-yl}piperidine-4-carboxamide]	0.132
CCCCC(=O)c1cc(Cl)c(N2CCC(C(=O)NS(=O)(=O)C(C)c3ccccc3)CC2)nc1CN1CCCC1=O (stereo not drawn) [Example 60, 1-{3-chloro-6-[(2-oxopyrrolidin-1-yl)methyl]-5-pentanoylpyridin-2-yl}-N-[(1-phenylethyl)sulfonyl]piperidine-4-carboxamide]	0.268
C=CCCC(=O)c1cc(C#N)c(N2CCC(C(=O)NS(=O)(=O)CC3CCCC3)CC2)nc1CN1CCCC1=O [Example 27, 1-{3-cyano-6-[(2-oxopyrrolidin-1-yl)methyl]-5-pent-4-enoylpyridin-2-yl}-N-[(cyclopentylmethyl)sulfonyl]piperidine-4-carboxamide]	0.02
C=CCCC(=O)c1cc(C#N)c(N2CCC(C(=O)NS(=O)(=O)Cc3ccc(F)cc3F)CC2)nc1CN1CCCC1=O [Example 41, 1-{3-cyano-6-[(2-oxopyrrolidin-1-yl)methyl]-5-pent-4-enoylpyridin-2-yl}-N-[(2,4-difluorobenzyl)sulfonyl]piperidine-4-carboxamide]	0.009
CCCC(=O)c1cc(Cl)c(N2CCC(C(=O)NS(=O)(=O)Cc3ccc(C)cc3)CC2)nc1CN1CCCC1=O [Example 32, 1-{5-Butyryl-3-chloro-6-[(2-oxopyrrolidin-1-yl)methyl]pyridin-2-yl}-N-[(4-methylbenzyl)sulfonyl]piperidine-4-carboxamide]	0.055
CN(c1ccccc1)S(=O)(=O)NC(=O)C1CCN(c2nc(CN3CCCCC3=O)c(C(=O)C3CC3)cc2C#N)CC1 [Example 13, 1-{3-Cyano-5-(cyclopropylcarbonyl)-6-[(2-oxopiperidin-1-yl)methyl]pyridin-2-yl}-N-{[methyl(phenyl)amino]sulfonyl}piperidine-4-carboxamide]	0.153
CCCC(=O)c1cc(Cl)c(N2CCC(C(=O)NS(=O)(=O)N(C)c3ccc(F)cc3)CC2)nc1CN1CCCC1=O [Example 31, 1-{5-Butyryl-3-chloro-6-[(2-oxopyrrolidin-1-yl)methyl]pyridin-2-yl}-N-{[(4-fluorophenyl)(methyl)amino]sulfonyl}piperidine-4-carboxamide]	0.109
N#Cc1cc(C(=O)C2CC2)c(CN2CCCC2=O)nc1N1CCC(C(=O)NS(=O)(=O)CC2CCCC2)CC1 [Example 9, 1-{3-Cyano-5-(cyclopropylcarbonyl)-6-[(2-oxopyrrolidin-1-yl)methyl]pyridin-2-yl}-N-[(cyclopentylmethyl)sulfonyl]piperidine-4-carboxamide]	0.058
CCc1cnc(-c2cc(C#N)c(N3CCC(C(=O)NS(=O)(=O)Cc4ccccc4)CC3)nc2CN2CCCC2=O)o1 [Example 63, N-(benzylsulfonyl)-1-{3-cyano-5-(5-ethyl-1,3-oxazol-2-yl)-6-[(2-oxopyrrolidin-1-yl)methyl]pyridin-2-yl}piperidine-4-carboxamide]	0.021
1-{3-chloro-6-[(2-oxopyrrolidin-1-yl)methyl]-5-pentanoylpyridin-2-yl}-N-[(2,4-difluorobenzyl)sulfonyl]-N-methylpiperidine-4-carboxamide [Example 71]	0.903
Cc1ccc(CS(=O)(=O)NC(=O)C2CCN(c3nc(CN4CCCC4=O)c(C(=O)CCC(F)(F)F)cc3C#N)CC2)cc1 [Example 43, 1-{3-cyano-6-[(2-oxopyrrolidin-1-yl)methyl]-5-(4,4,4-trifluorobutanoyl)pyridin-2-yl}-N-[(4-methylbenzyl)sulfonyl]piperidine-4-carboxamide]	0.019
CCCCC(=O)c1cc(Cl)c(N2CCC(C(=O)NS(=O)(=O)N(C)c3ccc(F)cc3)CC2)nc1CN1CCCC1=O [Example 56, 1-{3-chloro-6-[(2-oxopyrrolidin-1-yl)methyl]-5-pentanoylpyridin-2-yl}-N-{[(4-fluorophenyl)(methyl)amino]sulfonyl}piperidine-4-carboxamide]	0.247
N#Cc1cc(C(=O)C2CC2)c(CN2CCCC2=O)nc1N1CCC(C(=O)NS(=O)(=O)CC2CCC2)CC1 [Example 24, 1-{3-Cyano-5-(cyclopropylcarbonyl)-6-[(2-oxopyrrolidin-1-yl)methyl]pyridin-2-yl}-N-[(cyclobutylmethyl)sulfonyl]piperidine-4-carboxamide]	0.428
CCCC(=O)c1cc(Cl)c(N2CCC(C(=O)NS(=O)(=O)Cc3ccccc3)CC2)nc1CN1CCCCC1=O [Example 66, N-(benzylsulfonyl)-1-{5-butyryl-3-chloro-6-[(2-oxopiperidin-1-yl)methyl]pyridin-2-yl}piperidine-4-carboxamide]	0.252
CCCCC(=O)c1cc(Cl)c(N2CCC(C(=O)NS(=O)(=O)Cc3ccccc3)CC2)nc1CN1CCCC1=O [Example 57, N-(benzylsulfonyl)-1-{3-chloro-6-[(2-oxopyrrolidin-1-yl)methyl]-5-pentanoylpyridin-2-yl}piperidine-4-carboxamide]	0.079
CCCCC(=O)c1cc(C#N)c(N2CCC(C(=O)NS(=O)(=O)Cc3ccc(C)cc3)CC2)nc1CN1CCCC1=O [Example 19, 1-{3-Cyano-6-[(2-oxopyrrolidin-1-yl)methyl]-5-pentanoylpyridin-2-yl}-N-[(4-methylbenzyl)sulfonyl]piperidine-4-carboxamide]	0.0086
CCCC(=O)c1cc(C#N)c(N2CCC(C(=O)NS(=O)(=O)Cc3ccc(F)cc3F)CC2)nc1CN1CCCC1=O [Example 6, 1-{5-butyryl-3-cyano-6-[(2-oxopyrrolidin-1-yl)methyl]pyridin-2-yl}-N-[(2,4-difluorobenzyl)sulfonyl]piperidine-4-carboxamide]	0.0099
CCCC(=O)c1cc(Cl)c(N2CCC(C(=O)NS(=O)(=O)N(C)c3ccc(F)cc3)CC2)nc1CN1CCCCC1=O [Example 67, 1-{5-Butyryl-3-chloro-6-[(2-oxopiperidin-1-yl)methyl]pyridin-2-yl}-N-{[(4-fluorophenyl)(methyl)amino]sulfonyl}piperidine-4-carboxamide]	0.445
